Experimental findings from EP0183174A2, “Substituted phenoxy urea, processes for its preparation and herbicide containing it as active ingredient” (KUMIAI CHEMICAL INDUSTRY CO., LTD., priority 1984, dated 1986) are described below.

One data set relates to Paddy rice. Description: Test Example 2: herbicidal test for selectivity between rice and barnyardgrass (phytotoxicity). The data set is classed as in vivo. Conditions: thirty days after application. The procedure:
(§1) Into each 1/5000 are Wager pot, paddy soil was filled and puddled, then seeds of barnyardgrass were sown and grown until they reached 2-leaf stage. The barnyardgrass of 2-leaf stage was thinned out to adjust the number of barnyardgrass to fifteen per pot, and rice seedlings of 2-leaf stage were transplanted in the same pot. […] Thereafter, they were grown in a green house, and thirty days after the application, the herbicidal effects and phytotoxicity were evaluated in accordance with the standards as identified in Table 5.

The test system of another data set is barnyardgrass. Description: Test Example 2: herbicidal test for selectivity between rice and barnyardgrass (herbicidal effects). The data set is classed as in vivo, Echinochloa crus-galli L. Conditions: barnyardgrass of 2-leaf stage, thirty days after application. The procedure:
as §1

For data set [1], the system named is barnyardgrass (Echinochloa crus-galli L.). Description: Test Example 1: herbicidal test by water treatment in a paddy field. Conditions: evaluated thirty days after application. The data set is classed as in vivo. More on the design: key: 5: Withered; 4.5: Herbicidal effect (or phytotoxicity) in a range of 90 to 99%; 4: Herbicidal effect (or phytotoxicity) in a range of 80 to 89%; 3.5: Herbicidal effect (or phytotoxicity) in a range of 70 to 79%; 3: Herbicidal effect (or phytotoxicity) in a range of 60 to 69%; 2.5: Herbicidal effect (or phytotoxicity) in a range of 50 to 59%; 2: Herbicidal effect (or phytotoxicity) in a range of 40 to 49%; 1.5: Herbicidal effect (or phytotoxicity) in a range of 30 to 39%; 1: Herbicidal effect (or phytotoxicity) in a range of 20 to 29%; 0.5: Herbicidal effect (or phytotoxicity) in a range of 1 to 19%; 0: No herbicidal effect (or no phytotoxicity). The procedure:
(§2) Into each porcelain pot having a diameter of 10 cm, paddy soil was filled and puddled, and seeds of barnyardgrass (Echinochloa crus-galli L.), smallflower flatsedge, monochoria and Japanese bulrush were sown, and water was filled in a-depth of 3 cm. One day later, a predetermined amount of the wettable powder prepared in Formulation Example 3 and diluted with water was dropwise applied to the surface of the water (dose of the active ingredient: 4 kg/hectare). Thereafter, they were grown in a green house. Thirty days after the application, the herbicidal effects were evaluated in accordance with the standards as identified in Table 5.

In another data set the test system is smallflower flatsedge. Described as above. Set-up: key: 5: Withered; 4.5: Herbicidal effect (or phytotoxicity) in a range of 90 to 99%; 4: Herbicidal effect (or phytotoxicity) in a range of 80 to 89%; 3.5: Herbicidal effect (or phytotoxicity) in a range of 70 to 79%; 3: Herbicidal effect (or phytotoxicity) in a range of 60 to 69%; 2.5: Herbicidal effect (or phytotoxicity) in a range of 50 to 59%; 2: Herbicidal effect (or phytotoxicity) in a range of 40 to 49%; 1.5: Herbicidal effect (or phytotoxicity) in a range of 30 to 39%; 1: Herbicidal effect (or phytotoxicity) in a range of 20 to 29%; 0.5: Herbicidal effect (or phytotoxicity) in a range of 1 to 19%; 0: No herbicidal effect (or no phytotoxicity). The data set is classed as in vivo, Cvperus diffcrmis L. Conditions: evaluated thirty days after application. On the procedure:
as §2

The next data set relates to Japanese bulrush. Described as above. Type of data set: in vivo, Scir^pus juncoides Roxb. More on the design: key: 5: Withered; 4.5: Herbicidal effect (or phytotoxicity) in a range of 90 to 99%; 4: Herbicidal effect (or phytotoxicity) in a range of 80 to 89%; 3.5: Herbicidal effect (or phytotoxicity) in a range of 70 to 79%; 3: Herbicidal effect (or phytotoxicity) in a range of 60 to 69%; 2.5: Herbicidal effect (or phytotoxicity) in a range of 50 to 59%; 2: Herbicidal effect (or phytotoxicity) in a range of 40 to 49%; 1.5: Herbicidal effect (or phytotoxicity) in a range of 30 to 39%; 1: Herbicidal effect (or phytotoxicity) in a range of 20 to 29%; 0.5: Herbicidal effect (or phytotoxicity) in a range of 1 to 19%; 0: No herbicidal effect (or no phytotoxicity). Particulars: evaluated thirty days after application. On the procedure:
as §2

Another data set deals with monochoria. The data set is described as above. The data set is classed as in vivo, Monochoria vaginalis Presl. More on the design: key: 5: Withered; 4.5: Herbicidal effect (or phytotoxicity) in a range of 90 to 99%; 4: Herbicidal effect (or phytotoxicity) in a range of 80 to 89%; 3.5: Herbicidal effect (or phytotoxicity) in a range of 70 to 79%; 3: Herbicidal effect (or phytotoxicity) in a range of 60 to 69%; 2.5: Herbicidal effect (or phytotoxicity) in a range of 50 to 59%; 2: Herbicidal effect (or phytotoxicity) in a range of 40 to 49%; 1.5: Herbicidal effect (or phytotoxicity) in a range of 30 to 39%; 1: Herbicidal effect (or phytotoxicity) in a range of 20 to 29%; 0.5: Herbicidal effect (or phytotoxicity) in a range of 1 to 19%; 0: No herbicidal effect (or no phytotoxicity). Particulars: evaluated thirty days after application. On the procedure:
as §2

A short description of data set [2]: Herbicidal activity of the prior-art compound, used in the same manner as the compound of the invention (general statement). The data set is classed as in vivo. Conditions: used in the same manner as the compound of the present invention.
The mark [3] stands for this setting: dose of the active ingredient 4 kg/hectare, wettable powder applied to water surface one day after sowing.
[4] abbreviates: water treatment in paddy field pot, dose of active ingredient 4 kg/hectare.

Take `CN(C)C(=O)Nc1ccc(Cl)c(Cl)c1` [DCMU, reference compound]: the “Phytotoxicity Paddy rice” value is reported as 2 (Herbicidal effect (or phytotoxicity) in a range of 40 to 49%) in the data set on Paddy rice (Dose 0.25 kg/Ha, rice seedlings of 2-leaf stage transplanted, water surface application); 4 (Herbicidal effect (or phytotoxicity) in a range of 80 to 89%) in the data set with Paddy rice (Dose 0.5 kg/Ha, rice seedlings of 2-leaf stage transplanted, water surface application); 5 in the data set on Paddy rice (Dose 1 kg/Ha, rice seedlings of 2-leaf stage transplanted, water surface application). Moreover, the “Herbicidal effects Barnyard grass” value in the data set with barnyardgrass (Dose 0.25 kg/Ha, water surface application) is on record as 3 (Herbicidal effect (or phytotoxicity) in a range of 60 to 69%); with barnyardgrass (Dose 0.5 kg/Ha, water surface application) it was 5; with barnyardgrass (Dose 1 kg/Ha, water surface application) it was 5.
With `O=C(NOc1cccc(Cl)c1Cl)NC1CCCCC1` [Compound No. 3, 1-Cyclohexyl-3-(2,3-dichlorophenoxy) urea], the “Herbicidal effects Barnyard grass” value in data set [1] (setting [3]) was determined as 5. The “Herbicidal effects Small flower flatsedge” value in the data set with smallflower flatsedge (setting [3]) is 5. Moreover, the “Herbicidal effects Japanese bulrush” value in the data set with Japanese bulrush (setting [3]) was 5. In the data set on monochoria (setting [3]), the “Herbicidal effects Monochoria” value worked out at 5.
On to “3-(3,5-Dichlorophenoxy)-1,1-dimethyl urea trichloroacetate [Compound No. 184]”, for which, in data set [1] (setting [4]), the “Herbicidal effects Barnyard grass” value is recorded as 5. In addition, in the data set with smallflower flatsedge (setting [4]), the “Herbicidal effects Small flower flatsedge” value worked out at 5. Also, in the data set with Japanese bulrush (setting [4]), the “Herbicidal effects Japanese bulrush” value was 5. Moreover, the “Herbicidal effects Monochoria” value in the data set with monochoria (setting [4]) came to 5.
Consider `C=CCNC(=O)NOc1cc(Cl)ccc1Cl` [Compound No. 2, 1-Allyl-3-(2,5-dichlorophenoxy) urea], for which the “Herbicidal effects Barnyard grass” value (in data set [1] (setting [3]); in the data set with barnyardgrass (Dose 0.5 kg/Ha); with barnyardgrass (Dose 1 kg/Ha)) was 5 each time. Besides, in the data set on smallflower flatsedge (setting [3]), the “Herbicidal effects Small flower flatsedge” value was 5. The “Phytotoxicity Paddy rice” value in the data set with Paddy rice (Dose 0.5 kg/Ha, transplanted rice seedlings of 2-leaf stage) is reported as 0; with Paddy rice (Dose 1 kg/Ha, transplanted rice seedlings of 2-leaf stage) it was 1 (Herbicidal effect (or phytotoxicity) in a range of 20 to 29%). Further, the “Herbicidal effects Japanese bulrush” value with Japanese bulrush (setting [3]) amounted to 5. For the same compound, in the data set with monochoria (setting [3]), the “Herbicidal effects Monochoria” value worked out at 5.
For the compound “3-(2,5-Dichlorophenoxy)-1,1-dimethyl urea trichloroacetate [Compound No. 185]”, in data set [1] (setting [4]), the “Herbicidal effects Barnyard grass” value worked out at 5. Also, in the data set on smallflower flatsedge (setting [4]), the “Herbicidal effects Small flower flatsedge” value came out at 5. For the same compound, in the data set with Japanese bulrush (setting [4]), the “Herbicidal effects Japanese bulrush” value is on record as 5. In addition, in the data set with monochoria (setting [4]), the “Herbicidal effects Monochoria” value came to 5.
For the compound `NC(=O)NOc1cccc(Cl)c1` [m-chlorophenoxy urea], in data set [2], the herbicidal activites result was “does not show any herbicidal activites”.
Regarding `NC(=O)NOc1cccc(Cl)c1` [Comparative Compound], the “Herbicidal effects Barnyard grass” value in data set [1] (setting [4]) amounted to 0. In addition, the “Herbicidal effects Small flower flatsedge” value in the data set on smallflower flatsedge (setting [4]) is on record as 0. Moreover, in the data set on Japanese bulrush (setting [4]), the “Herbicidal effects Japanese bulrush” value stood at 0. Besides, the “Herbicidal effects Monochoria” value with monochoria (setting [4]) is recorded as 0.
